Reference: ChEMBL document CHEMBL1153407, “12-Substituted 2,3-dimethoxy-8,9-methylenedioxybenzo[i]phenanthridines as novel topoisomerase I-targeting antitumor agents” (Bioorg Med Chem, 2009)
pIC50: −log10 of the molar value.

Biological target: T1, DNA topoisomerase 1 (Homo sapiens) (UniProt P11387)
T1 sequence (whole entry): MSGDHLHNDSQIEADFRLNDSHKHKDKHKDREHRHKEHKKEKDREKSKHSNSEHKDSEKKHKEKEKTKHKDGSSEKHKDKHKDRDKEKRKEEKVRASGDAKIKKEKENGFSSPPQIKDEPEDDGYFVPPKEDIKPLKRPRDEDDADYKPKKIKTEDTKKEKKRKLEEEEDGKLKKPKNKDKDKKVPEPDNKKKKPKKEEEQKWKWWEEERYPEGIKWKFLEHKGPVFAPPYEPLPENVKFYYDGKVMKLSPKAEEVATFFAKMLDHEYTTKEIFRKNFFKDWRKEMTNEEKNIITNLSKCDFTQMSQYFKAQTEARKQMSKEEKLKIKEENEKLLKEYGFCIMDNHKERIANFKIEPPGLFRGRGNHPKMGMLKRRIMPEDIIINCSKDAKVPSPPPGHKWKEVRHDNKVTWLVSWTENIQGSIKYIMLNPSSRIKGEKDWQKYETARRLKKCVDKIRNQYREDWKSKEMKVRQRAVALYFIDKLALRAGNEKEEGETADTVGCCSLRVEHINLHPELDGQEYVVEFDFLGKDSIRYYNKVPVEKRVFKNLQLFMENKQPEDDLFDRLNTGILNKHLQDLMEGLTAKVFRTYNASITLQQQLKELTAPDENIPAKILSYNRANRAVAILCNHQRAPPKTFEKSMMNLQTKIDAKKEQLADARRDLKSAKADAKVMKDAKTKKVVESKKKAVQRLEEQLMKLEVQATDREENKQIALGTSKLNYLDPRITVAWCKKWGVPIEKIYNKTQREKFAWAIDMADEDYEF
Experiment: Inhibition of human topoisomerase 1 expressed in sf9 cells assessed as drug level causing 10% mediated DNA cleavage relative to topotecan
Conditions: not given

Activity | SMILES
1.1 | COc1cc2c(CN(C)C)cc3c4cc5c(cc4ncc3c2cc1OC)OCO5
0.25 | COc1cc2c(CO)cc3c4cc5c(cc4ncc3c2cc1OC)OCO5
7.7 | COc1cc2c(/C=C/CN(C)C)cc3c4cc5c(cc4ncc3c2cc1OC)OCO5
9.2 | COc1cc2c(/C=C/[N+](=O)[O-])cc3c4cc5c(cc4ncc3c2cc1OC)OCO5
4.7 | COc1cc2c(C=O)cc3c4cc5c(cc4ncc3c2cc1OC)OCO5
9.2 | COc1cc2c(C(O)CCCN(C)C)cc3c4cc5c(cc4ncc3c2cc1OC)OCO5 (stereo unspecified)
1.1 | COc1cc2c(C(=O)N(C)C)cc3c4cc5c(cc4ncc3c2cc1OC)OCO5
15 | COc1cc2c(/C=C/CCN(C)C)cc3c4cc5c(cc4ncc3c2cc1OC)OCO5
0.3 | COc1cc2c(=O)n(CCN(C)C)c3c4cc5c(cc4ncc3c2cc1OC)OCO5

System: not listed separately
Experiment: Cytotoxicity against human RPMI8402 cells after 4 days by MTT method
Assay type: functional, cell-based
Conditions: RPMI 8402, 96 h

SMILES | pIC50
COc1cc2c(CN(C)C)cc3c4cc5c(cc4ncc3c2cc1OC)OCO5 | 7.48
COc1cc2c(CO)cc3c4cc5c(cc4ncc3c2cc1OC)OCO5 | 7.52
COc1cc2c(/C=C/CN(C)C)cc3c4cc5c(cc4ncc3c2cc1OC)OCO5 | 7.35
COc1cc2c(/C=C/[N+](=O)[O-])cc3c4cc5c(cc4ncc3c2cc1OC)OCO5 | 7.48
COc1cc2c(C=O)cc3c4cc5c(cc4ncc3c2cc1OC)OCO5 | 8.52
COc1cc2c(C(O)CCCN(C)C)cc3c4cc5c(cc4ncc3c2cc1OC)OCO5 (stereo unspecified) | 6.52
COc1cc2c(C(=O)N(C)C)cc3c4cc5c(cc4ncc3c2cc1OC)OCO5 | 6.22
COc1cc2c(/C=C/CCN(C)C)cc3c4cc5c(cc4ncc3c2cc1OC)OCO5 | 6.52
COc1cc2c(=O)n(CCN(C)C)c3c4cc5c(cc4ncc3c2cc1OC)OCO5 | 8.70

System: not listed separately
Experiment: Cytotoxicity against camptothecin-resistant human CPT-K5 cells after 4 days by MTT method
Assay type: functional, cell-based
Conditions: CPT-K5, 96 h

SMILES | pIC50
COc1cc2c(CN(C)C)cc3c4cc5c(cc4ncc3c2cc1OC)OCO5 | 7.48
COc1cc2c(CO)cc3c4cc5c(cc4ncc3c2cc1OC)OCO5 | 7.52
COc1cc2c(/C=C/CN(C)C)cc3c4cc5c(cc4ncc3c2cc1OC)OCO5 | 7.08
COc1cc2c(/C=C/[N+](=O)[O-])cc3c4cc5c(cc4ncc3c2cc1OC)OCO5 | 7.46
COc1cc2c(C=O)cc3c4cc5c(cc4ncc3c2cc1OC)OCO5 | 8.52
COc1cc2c(C(O)CCCN(C)C)cc3c4cc5c(cc4ncc3c2cc1OC)OCO5 (stereo unspecified) | 5.68
COc1cc2c(C(=O)N(C)C)cc3c4cc5c(cc4ncc3c2cc1OC)OCO5 | < 5.00
COc1cc2c(/C=C/CCN(C)C)cc3c4cc5c(cc4ncc3c2cc1OC)OCO5 | 6.66
COc1cc2c(=O)n(CCN(C)C)c3c4cc5c(cc4ncc3c2cc1OC)OCO5 | 6.05

System: P388
Experiment: Cytotoxicity against mouse P388 cells after 4 days by MTT method
Assay type: functional, cell-based
Conditions: P388, 96 h

SMILES | pIC50
COc1cc2c(CN(C)C)cc3c4cc5c(cc4ncc3c2cc1OC)OCO5 | 8.30
COc1cc2c(CO)cc3c4cc5c(cc4ncc3c2cc1OC)OCO5 | 7.52
COc1cc2c(/C=C/CN(C)C)cc3c4cc5c(cc4ncc3c2cc1OC)OCO5 | 7.52
COc1cc2c(/C=C/[N+](=O)[O-])cc3c4cc5c(cc4ncc3c2cc1OC)OCO5 | 7.60
COc1cc2c(C=O)cc3c4cc5c(cc4ncc3c2cc1OC)OCO5 | 8.70
COc1cc2c(C(O)CCCN(C)C)cc3c4cc5c(cc4ncc3c2cc1OC)OCO5 (stereo unspecified) | 6.39
COc1cc2c(C(=O)N(C)C)cc3c4cc5c(cc4ncc3c2cc1OC)OCO5 | 6.32
COc1cc2c(/C=C/CCN(C)C)cc3c4cc5c(cc4ncc3c2cc1OC)OCO5 | 7.52

System: P388
Experiment: Cytotoxicity against camptothecin-resistant mouse P388 cells after 4 days by MTT method
Assay type: functional, cell-based
Conditions: P388, 96 h

SMILES | pIC50
COc1cc2c(CN(C)C)cc3c4cc5c(cc4ncc3c2cc1OC)OCO5 | 7.82
COc1cc2c(CO)cc3c4cc5c(cc4ncc3c2cc1OC)OCO5 | 7.52
COc1cc2c(/C=C/CN(C)C)cc3c4cc5c(cc4ncc3c2cc1OC)OCO5 | 7.43
COc1cc2c(/C=C/[N+](=O)[O-])cc3c4cc5c(cc4ncc3c2cc1OC)OCO5 | 7.60
COc1cc2c(C=O)cc3c4cc5c(cc4ncc3c2cc1OC)OCO5 | 8.70
COc1cc2c(C(O)CCCN(C)C)cc3c4cc5c(cc4ncc3c2cc1OC)OCO5 (stereo unspecified) | 6.29
COc1cc2c(C(=O)N(C)C)cc3c4cc5c(cc4ncc3c2cc1OC)OCO5 | < 5.00
COc1cc2c(/C=C/CCN(C)C)cc3c4cc5c(cc4ncc3c2cc1OC)OCO5 | 7.22

System: not listed separately
Experiment: Cytotoxicity against human KB3-1 cells after 4 days by MTT method
Assay type: functional, cell-based
Conditions: KB 3-1, 96 h

SMILES | pIC50
CC[C@@]1(O)C(=O)OCc2c1cc1n(c2=O)Cc2cc3c(CN(C)C)c(O)ccc3nc2-1 [TOPOTECAN] | 7.40
CCc1c2c(nc3ccc(O)cc13)-c1cc3c(c(=O)n1C2)COC(=O)[C@]3(O)CC [7-ETHYL-10-HYDROXYCAMPTOTHECIN] | 8.40
COc1cc2c(CN(C)C)cc3c4cc5c(cc4ncc3c2cc1OC)OCO5 | 7.52
COc1cc2c(CO)cc3c4cc5c(cc4ncc3c2cc1OC)OCO5 | 7.35
COc1cc2c(/C=C/CN(C)C)cc3c4cc5c(cc4ncc3c2cc1OC)OCO5 | 6.80
COc1cc2c(/C=C/[N+](=O)[O-])cc3c4cc5c(cc4ncc3c2cc1OC)OCO5 | 7.52
COc1cc2c(C=O)cc3c4cc5c(cc4ncc3c2cc1OC)OCO5 | 8.40
COc1cc2c(C(O)CCCN(C)C)cc3c4cc5c(cc4ncc3c2cc1OC)OCO5 (stereo unspecified) | 6.77
COc1cc2c(C(=O)N(C)C)cc3c4cc5c(cc4ncc3c2cc1OC)OCO5 | 6.22
COc1cc2c(/C=C/CCN(C)C)cc3c4cc5c(cc4ncc3c2cc1OC)OCO5 | 6.49
COc1cc2c(=O)n(CCN(C)C)c3c4cc5c(cc4ncc3c2cc1OC)OCO5 | 8.30

System: not listed separately
Experiment: Cytotoxicity against MDR1 overexpressing human KBV1 cells after 4 days by MTT method
Assay type: functional, cell-based
Conditions: KB-V1, 96 h

SMILES | pIC50
CC[C@@]1(O)C(=O)OCc2c1cc1n(c2=O)Cc2cc3c(CN(C)C)c(O)ccc3nc2-1 [TOPOTECAN] | 6.36
CCc1c2c(nc3ccc(O)cc13)-c1cc3c(c(=O)n1C2)COC(=O)[C@]3(O)CC [7-ETHYL-10-HYDROXYCAMPTOTHECIN] | 7.34
COc1cc2c(CN(C)C)cc3c4cc5c(cc4ncc3c2cc1OC)OCO5 | 6.77
COc1cc2c(CO)cc3c4cc5c(cc4ncc3c2cc1OC)OCO5 | 7.12
COc1cc2c(/C=C/CN(C)C)cc3c4cc5c(cc4ncc3c2cc1OC)OCO5 | 6.43
COc1cc2c(/C=C/[N+](=O)[O-])cc3c4cc5c(cc4ncc3c2cc1OC)OCO5 | 5.75
COc1cc2c(C=O)cc3c4cc5c(cc4ncc3c2cc1OC)OCO5 | 7.80
COc1cc2c(C(O)CCCN(C)C)cc3c4cc5c(cc4ncc3c2cc1OC)OCO5 (stereo unspecified) | 5.72
COc1cc2c(C(=O)N(C)C)cc3c4cc5c(cc4ncc3c2cc1OC)OCO5 | 6.15
COc1cc2c(/C=C/CCN(C)C)cc3c4cc5c(cc4ncc3c2cc1OC)OCO5 | 6.40
COc1cc2c(=O)n(CCN(C)C)c3c4cc5c(cc4ncc3c2cc1OC)OCO5 | 8.70

System: not listed separately
Experiment: Cytotoxicity against BCRP overexpressing human KBH5.0 cells after 4 days by MTT method
Assay type: functional, cell-based
Conditions: KBH5.0 cell, 96 h

SMILES | pIC50
CC[C@@]1(O)C(=O)OCc2c1cc1n(c2=O)Cc2cc3c(CN(C)C)c(O)ccc3nc2-1 [TOPOTECAN] | 6.36
CCc1c2c(nc3ccc(O)cc13)-c1cc3c(c(=O)n1C2)COC(=O)[C@]3(O)CC [7-ETHYL-10-HYDROXYCAMPTOTHECIN] | 6.52
COc1cc2c(CN(C)C)cc3c4cc5c(cc4ncc3c2cc1OC)OCO5 | 7.22
COc1cc2c(CO)cc3c4cc5c(cc4ncc3c2cc1OC)OCO5 | 7.10
COc1cc2c(/C=C/CN(C)C)cc3c4cc5c(cc4ncc3c2cc1OC)OCO5 | 6.54
COc1cc2c(/C=C/[N+](=O)[O-])cc3c4cc5c(cc4ncc3c2cc1OC)OCO5 | 7.40
COc1cc2c(C=O)cc3c4cc5c(cc4ncc3c2cc1OC)OCO5 | 7.72
COc1cc2c(C(O)CCCN(C)C)cc3c4cc5c(cc4ncc3c2cc1OC)OCO5 (stereo unspecified) | 6.26
COc1cc2c(C(=O)N(C)C)cc3c4cc5c(cc4ncc3c2cc1OC)OCO5 | 6.42
COc1cc2c(/C=C/CCN(C)C)cc3c4cc5c(cc4ncc3c2cc1OC)OCO5 | 6.49
COc1cc2c(=O)n(CCN(C)C)c3c4cc5c(cc4ncc3c2cc1OC)OCO5 | 8.22
